Results: patent publication US20180169045A1, “AMINO ACID COMPOSITIONS AND METHODS FOR THE TREATMENT OF LIVER DISEASES” (AXCELLA HEALTH INC., priority 2016, published 2018)

Experiments:
Format in all cases: cell-based
[1] = tested on: Primary human hepatic stellate cells; assay: TGFβ1-induced procollagen Iα1 secretion in primary human hepatic stellate cells (ELISA); conditions: for procollagen Iα1 secretion, in words: primary human hepatic stellate cells from three donors, 3 ng/mL TGFβ1, 24 h
Method: Primary human hepatic stellate cells were obtained from Samsara Sciences based on the following criteria for selecting donors: adult age (between 18 and 50 years), normal BMI (>18.5 and <25), and absence of confounding liver disease. Cells grown in Complete HSC Medium to ˜80% confluence in T75 or T150 flasks below passage 10 were seeded into sterile, collagen I coated, 96-well optical plastic microplates (ThermoScientific, 152036) at 6000 cells per well ([…]) and incubated overnight at 37° C., 5% CO2 in a humidified incubator in DMEM with 2% Fetal Bovine Serum and 1% Antibiotic-Antimycotic.
After the overnight incubation, plates were removed from the incubator and the medium was gently pipetted off and washed twice with 150 μL per well DPBS. The DPBS was removed and the pretreatment medium (±single amino acid dropout, 1×HMDB DMEM+1% Antibiotic-Antimycotic, 10 mM HEPES, ±supplemental amino acid dose; see experiment for medium composition) was applied to the cells at 150 μL per well. Plates were returned to the incubator for 10.5 hours.
After 10.5 hour pretreatment, the medium was removed from the cells, and the same pretreatment medium, now supplemented with 3 ng/mL TGFβ1, was applied. Each plate contained 3 ng/mL TGFβ1 in 1× human plasma amino acid (HMDB or PAA) concentration medium, 0 ng/mL in 1×HMDB, and 3 ng/mL TGFβ1+20 μM Silybin in 1×HMDB to serve as controls. Plates were then incubated for 24 hours at 37° C., 5% CO2.
After 24 hour stimulus, supernatant was removed and frozen at −80° C. in two separate aliquots. The cells were then washed with 125 μL per well Buffer FCW (FastLane Cell Multiplex NR Kit, Qiagen, 216713). The wash buffer was immediately removed and 50 μL of Cell Processing Mix (containing genomic DNA Wipeout buffer) was applied to lyse cells, incubating for 10 minutes at room temperature. RNA lysate was then transferred to 96-well qPCR plates, sealed, and gDNA was digested on thermal cycler at 75° C. for 5 minutes. RNA lysate was frozen at −80° C.
Human Procollagen Iα1 was measured from the supernatant by ELISA (Human Pro-Collagen I alpha 1 DuoSet ELISA, R&D Systems) at 1/100 dilution in 1× Reagent Diluent (Reagent Ancillary Kit 2, R&D Systems).

[2] = tested on: human primary hepatocytes; assay: MCP1/CCL2 secretion in primary human hepatocytes exposed to free fatty acids + TNFα (ELISA); conditions: primary human hepatocytes from two healthy donors, 24 h
Method: Hepatocyte lipotoxicity appears to be a central driver of hepatic cellular injury via oxidative stress and endoplasmic reticulum (ER) stress. The ability of amino acids to influence steatosis (lipid accumulation) and inflammation in hepatocytes was assessed using human primary hepatocytes (Lonza, TRL).
Primary hepatocytes lot nos. from two healthy human donors were seeded on day 0 at density of 6e04 cells in 96 well optical microplates (Thermofisher) in hepatocyte plating media (William's E medium (Gibco) supplemented with 10% heat-inactivated FBS (Atlanta Bio), 2 mM Glutamax (Gibco), 1×ITS plus (R&D systems), and 0.2% Primocin (InVivoGen) and incubated for 6 hours at 37° C., 5% CO2. After 6 hours, cells were washed twice with 150 ul William's E medium and incubated overnight at 37° C., 5% CO2 with serum-free hepatocytes culture media (Hepatocytes defined medium (Corning)) supplemented with 5 ug human recombinant EGF (Corning), 2 mM Glutamax (Gibco), and 1× Penicillin/Streptomycin. On day 1, cells were washed twice with 150 μL per well William's E medium (Gibco) and incubated for 24h in the hepatocyte culture media in the same conditions described above.
On day 2, cells were washed twice with 150 ul DPBS 1× (Gibco) and maintained in amino acid-free WEM (US Biologicals) containing a defined custom amino acid concentration based on the mean physiological concentrations in blood. The values are published in the Human Metabolome Database (Wishart D S, Tzur D, Knox C, et al., HMDB: the Human Metabolome Database. Nucleic Acids Res. 2007 January; 35(Database issue):D521-6. 17202168; which is hereby incorporated by reference in its entirety). This custom media is supplemented with 11 mM Glucose, 0.272 mM Sodium Pyruvate, and a dose curve of defined amino acid compositions (i.e., vehicle, LIVRQ+N-acetylcysteine, LIVRQ, RQ+N-acetylcysteine, N-acetylcysteine alone, LIV, or individually with L-Leucine, L-Isoleucine, L-Valine, L-Arginine, L-Glutamine, and L-Cysteine) at various ranges of concentrations. Cells were maintained in this defined media for 24 hours at 37° C., 5% CO2.
After pre-treatment, cells were exposed to free fatty acids (FFA) at 250 uM with a ratio of 2:1 (Oleate:Palmitate) supplemented with TNF-α (Thermofisher) at 1 ng/ml or vehicle. Cells were incubated with the FFAs mixture and the different amino acids combinations for 24 hours at 37° C., 5% CO2. After 24 hours incubation, media was removed for cytokine analysis and replaced by fresh media containing the same stimulus conditions and amino acid concentrations. Cells were incubated for an additional 48 hours for a total of 72 hours of FFA and TNFα stimulation.
Human CCL2 (MCP-1) was measured by ELISA (Human […] DuoSet ELISA, R&D Systems) at 1/5 or 1/10 dilution in 1× Reagent Diluent (Reagent Ancillary Kit 2, R&D Systems). Data were normalized to the specific per well cell density determined by nuclei count stained by Hoechst 3342 (Life technologies) in the fluorescence microscopy described below.

[3] = tested on: LX-2 hepatic stellate cells; assay: TGFβ1-induced fibrogenic gene expression (Col1a1, Acta2, Timp2) in LX-2 cells, qRT-PCR; conditions: TGFβ1 5 ng/mL, combinations at 40× HMDB concentrations, N-acetylcysteine 10 mM

N=C(N)NCCC[C@H](N)C(=O)O [Arginine, L-Arginine]
Procollagen Iα1 Secretion (Fold Change of 1X), Mean ([1]; first donor, Conc. 109 μM (baseline)): 1.0000 fold
procollagen Iα1 secretion, in words [1]: significantly increased procollagen Iα1 secretion in two of three donors
Procollagen Iα1 Secretion (Fold Change of 1X), Mean ([1]; second donor, Conc. 109 μM (baseline)): 1.0000 fold
Procollagen Iα1 Secretion (Fold Change of 1X), Mean ([1]; third donor, Conc. 109 μM (baseline)): 1.0000 fold
MCP1/CCL2 secretion, in words [2]: increased

NC(=O)CC[C@H](N)C(=O)O [Glutamine, L-Glutamine]
Procollagen Iα1 Secretion (Fold Change of 1X), Mean ([1]; first donor, Conc. 562 μM (baseline)): 1.0000 fold
procollagen Iα1 secretion, in words [1]: did not have a significant impact
Procollagen Iα1 Secretion (Fold Change of 1X), Mean ([1]; second donor, Conc. 562 μM (baseline)): 1.0000 fold
Procollagen Iα1 Secretion (Fold Change of 1X), Mean ([1]; third donor, Conc. 562 μM (baseline)): 1.0000 fold
MCP1/CCL2 secretion, in words [2]: significantly decrease

CC[C@H](C)[C@H](N)C(=O)O [Isoleucine, L-Isoleucine]
procollagen Iα1 secretion, in words [1]: significantly increased procollagen Iα1 secretion in two of three donors
Procollagen Iα1 Secretion (Fold Change of 1X), Mean ([1]; second donor, Conc. 66 μM (baseline)): 1.0000 fold
Procollagen Iα1 Secretion (Fold Change of 1X), Mean ([1]; third donor, Conc. 66 μM (baseline)): 1.0000 fold
MCP1/CCL2 secretion, in words [2]: did not have an effect

CC(C)C[C@H](N)C(=O)O [Leucine, L-Leucine]
Procollagen Iα1 Secretion (Fold Change of 1X), Mean ([1]; first donor, Conc. 153 μM (baseline)): 1.0000 fold
Procollagen Iα1 Secretion (Fold Change of 1X), Mean ([1]; second donor, Conc. 153 μM (baseline)): 1.0000 fold
Procollagen Iα1 Secretion (Fold Change of 1X), Mean ([1]; third donor, Conc. 153 μM (baseline)): 1.0000 fold
MCP1/CCL2 secretion, in words [2]: did not have an effect

CC(=O)N[C@@H](CS)C(=O)O [N-acetylcysteine]
Col1a1 gene expression, in words [3]: reduced
Timp2 gene expression, in words [3]: reduced
procollagen Iα1 secretion, in words [1]: significantly decrease procollagen Iα1 secretion in two of the three donors
MCP1/CCL2 secretion, in words [2]: significantly decrease

CC(C)[C@H](N)C(=O)O [Valine, L-Valine]
Procollagen Iα1 Secretion (Fold Change of 1X), Mean ([1]; first donor, Conc. 234 μM (baseline)): 1.0000 fold
procollagen Iα1 secretion, in words [1]: significantly increased procollagen Iα1 secretion in only one of two donors
Procollagen Iα1 Secretion (Fold Change of 1X), Mean ([1]; second donor, Conc. 234 μM (baseline)): 1.0000 fold
Procollagen Iα1 Secretion (Fold Change of 1X), Mean ([1]; third donor, Conc. 234 μM (baseline)): 1.0000 fold
MCP1/CCL2 secretion, in words [2]: did not have an effect
